These results are taken from patent US7226931B2, “(R/S) rifamycin derivatives, their preparations and pharmaceutical compositions” (priority 2004, dated 2007).

For one assay, the system named is S. aureus ATCC 29213. Description: MIC by microbroth dilution, S. aureus ATCC 29213 (rifS). The assay is classed as cell-based, Staphylococcus aureus. The protocol: (§1) Representative compounds of the formula (I) were assayed for antimicrobial activity as follows: Minimum Inhibitory Concentrations (MICs) were determined by the microbroth dilution method as per NCCLS guidelines (National Committee for Clinical Laboratory Standards, 2000). All growth incubations were conducted at 37° C. Bacterial cultures were tested in the following bacteriological media: S. aureus, S. epidermidis in Cation-Adjusted Mueller-Hinton Broth, S. pneumoniae in THY Broth supplemented with 1 mg/mL catalase under 5% CO2 atmosphere, S. pyogenes in THY Broth, E. faecalis in BHI Broth, H. influenzae in BHI Broth supplemented with 0.75 μL of 1 mg/mL NAD and 150 μL of 1 mg/ml hematin per 5 mL.
(§2) S. aureus ATCC 29213, S. epidermidis ATCC 12228, S. pneumoniae ATCC6303, S. pyogenes ATCC 19615 and E. faecalis ATCC 29212 are rifampin-susceptible Gram-positive strains. […] H. influenzae ATCC 10211 is Gram-negative bacteria.

Another assay deals with H. influenzae ATCC 10211. Description: MIC by microbroth dilution, H. influenzae ATCC 10211. The class given is cell-based, Haemophilus influenzae. The protocol:
as §1, §2

The next assay deals with S. pneumoniae ATCC6303. Description: MIC by microbroth dilution, S. pneumoniae ATCC6303. The class given is cell-based, Streptococcus pneumoniae. The protocol: as §1, §2
Assay [1] has as its system pathogenic microorganisms. Description: Antibacterial activity, influence of linker chirality (R versus S). The assay is classed as cell-based. Conditions: (R)- versus (S)-absolute configuration at the linker carbon. On the procedure:
as §1, with “As already mentioned, the compounds of formula I or their salts have antibacterial properties and activities against rifampin and quinolone resistant strains. […] Representative” for “Representative”
The antibacterial activities of the compounds of the formula (I) are influenced by the chirality of the linker.

For another assay, the system named is S. pyogenes ATCC 19615. Description: MIC by microbroth dilution, S. pyogenes ATCC 19615. The assay is classed as cell-based, Streptococcus pyogenes. On the procedure:
as §1, §2

For assay [2], the system named is Staphylococcus aureus MT1222 gyrA^A116E grlB^S80F. Description: MIC by microbroth dilution, quinolone-resistant S. aureus MT1222. The assay is classed as cell-based. The protocol: as §1, §2
The subject of assay [3] is S. epidermidis ATCC 12228. Description: MIC by microbroth dilution, S. epidermidis ATCC 12228. The assay is classed as cell-based, Staphylococcus epidermidis. The protocol: as §1, §2
The subject of assay [4] is S. aureus ATCC 29213 RpoB^D417Y. Description: microbe, parasite or virus in culture. The class given is cell-based. Conditions: Staphylococcus aureus. On the procedure: as §1, §2
Assay [5] can be described thus: MIC by microbroth dilution, panel of rifampin-susceptible Gram-positive strains. The class given is cell-based. Conditions: range over the rifampin-susceptible Gram-positive strains. The protocol: as §1, §2
Setting [6] is: Staphylococcus aureus, ATCC29213, read-out: Antimicrobial activity (MIC).
[7] abbreviates: Haemophilus influenzae ATCC10211, rifS, read-out: Antimicrobial activity (MIC).
Where [8] appears, read: Streptococcus pneumoniae, ATCC6303, read-out: Antimicrobial activity (MIC).
Setting [9] is: Streptococcus pyogenes, ATCC19615, read-out: Antimicrobial activity (MIC).
Setting [10] is: read-out: Antimicrobial activity (MIC).
[11] abbreviates: Staphylococcus epidermidis, ATCC12228, read-out: Antimicrobial activity (MIC).
The mark [12] stands for this setting: ATCC29213, read-out: Antimicrobial activity (MIC).
[13] abbreviates: Staphylococcus aureus ATCC29213, rifS, read-out: Antimicrobial activity (MIC).
Setting [14] is: Streptococcus pneumoniae ATCC6303, rifS, read-out: Antimicrobial activity (MIC).
The mark [15] stands for this setting: Streptococcus pyogenes ATCC19615, rifS, read-out: Antimicrobial activity (MIC).
Where [16] appears, read: Staphylococcus epidermidis ATCC12228, rifS, read-out: Antimicrobial activity (MIC).

≈ marks a conversion by molar mass, not a printed value. Where two headings read alike, the source gives them in different places.

In the case of `CO[C@H]1/C=C/O[C@@]2(C)Oc3c(C)c(O)c4c(O)c(c(/C=N/N5CCC(N(C)C6([C@@H]7CCN(c8c(F)cn9c(=O)c(C(=O)O)cc(C%10CC%10)c9c8C)C7)CC6)CC5)c(O)c4c3C2=O)NC(=O)/C(C)=C\C=C\[C@H](C)[C@H](O)[C@@H](C)[C@@H](O)[C@@H](C)[C@H](OC(C)=O)[C@@H]1C` [Example 1, (R)-3-[(4-{1-[1-(3-Carboxy-1-cyclopropyl-7-fluoro-9-methyl-4-oxo-4H-quinolizine-8-yl)-pyrrolidin-3-yl-cyclopropyl]-methylamino}-piperidin-1-ylimino)-methylenyl]-rifamycin SV], the MIC was 0.06 µg/mL (≈ 0.0498 µM) in the assay on S. aureus ATCC 29213 (setting [6]); 0.5 µg/mL (≈ 0.415 µM) in the assay on H. influenzae ATCC 10211 (setting [7]); 0.015 µg/mL (≈ 0.0124 µM) in the assay with S. pneumoniae ATCC6303 (setting [8]); 0.015 µg/mL (≈ 0.0124 µM) in the assay with S. pyogenes ATCC 19615 (setting [9]); 0.06 µg/mL (≈ 0.0498 µM) in assay [2] (setting [10]); 0.06 µg/mL (≈ 0.0498 µM) in [3] (setting [11]). For the same compound, the MIC in assay [4] (setting [12]) was 0.5 µg/mL (≈ 0.415 µM). Besides, the “antibacterial activity compared with example 2 ((S)-configuration)” value in assay [1] is reported as “more active”.
`CO[C@H]1/C=C/O[C@@]2(C)Oc3c(C)c(O)c4c(O)c(c(/C=N/N5CCC(N(C)C6([C@H]7CCN(c8c(F)cn9c(=O)c(C(=O)O)cc(C%10CC%10)c9c8C)C7)CC6)CC5)c(O)c4c3C2=O)NC(=O)/C(C)=C\C=C\[C@H](C)[C@H](O)[C@@H](C)[C@@H](O)[C@@H](C)[C@H](OC(C)=O)[C@@H]1C` [Example 2, (S)-3-[(4-{1-[1-(3-Carboxy-1-cyclopropyl-7-fluoro-9-methyl-4-oxo-4H-quinolizine-8-yl)-pyrrolidin-3-yl-cyclopropyl]-methylamino}-piperidin-1-ylimino)-methylenyl]-rifamycin SV]: the MIC in the assay with S. aureus ATCC 29213 (setting [6]) came to 0.24 µg/mL (≈ 0.199 µM); in the assay with H. influenzae ATCC 10211 (setting [7]), 0.5 µg/mL (≈ 0.415 µM); in the assay with S. pneumoniae ATCC6303 (setting [8]), 0.015 µg/mL (≈ 0.0124 µM); with S. pyogenes ATCC 19615 (setting [9]), 0.03 µg/mL (≈ 0.0249 µM); in assay [2] (setting [10]) it was 0.24 µg/mL (≈ 0.199 µM); in assay [3] (setting [11]), 0.12 µg/mL (≈ 0.0996 µM). For the same compound, the MIC in assay [4] (setting [12]) came out at 8 µg/mL (≈ 6.64 µM).
Turning to `O=C(O)c1cn(C2CC2)c2cc(N3CCNCC3)c(F)cc2c1=O` [ciprofloxacin], the MIC with S. aureus ATCC 29213 (setting [13]) was found to be 0.25 µg/mL (≈ 0.754 µM); with H. influenzae ATCC 10211 (setting [7]) it was 0.008 µg/mL (≈ 0.0241 µM); in the assay on S. pneumoniae ATCC6303 (setting [14]) it was 1 µg/mL (≈ 3.02 µM); in the assay on S. pyogenes ATCC 19615 (setting [15]) it was 0.5 µg/mL (≈ 1.51 µM); in assay [2], 8 µg/mL (≈ 24.1 µM); in assay [2] (setting [10]) it was 8 µg/mL (≈ 24.1 µM). The MIC worked out at 0.125 µg/mL (≈ 0.377 µM) in assay [3] (setting [16]) and 0.25 µg/mL (≈ 0.754 µM) in assay [4] (setting [12]).
On to `CO[C@H]1/C=C/O[C@@]2(C)Oc3c(C)c(O)c4c(O)c(c(/C=N/N5CCN(C)CC5)c(O)c4c3C2=O)NC(=O)/C(C)=C\C=C\[C@H](C)[C@H](O)[C@@H](C)[C@@H](O)[C@@H](C)[C@H](OC(C)=O)[C@@H]1C` [rifampin], for which the MIC in the assay on S. aureus ATCC 29213 (setting [13]) is 0.008 µg/mL (≈ 0.00972 µM); in the assay on H. influenzae ATCC 10211 (setting [7]) it was 0.24 µg/mL (≈ 0.292 µM); in the assay on H. influenzae ATCC 10211 (Haemophilus influenzae, ATCC10211, Gram-negative bacteria (H. influenzae ATCC 10211, 'these organisms'), read-out: MICs) it was 0.24 to 16 µg/mL (≈ 0.292 to 19.4 µM); with S. pneumoniae ATCC6303 (setting [14]), 0.061 µg/mL (≈ 0.0741 µM); in assay [5], 0.008 to 1 µg/mL (≈ 0.00972 to 1.22 µM); in the assay on S. pyogenes ATCC 19615 (setting [15]), 0.013 µg/mL (≈ 0.0158 µM). Also, the MIC is 0.004 µg/mL (≈ 0.00486 µM) in assay [2] (setting [10]), 0.03 µg/mL (≈ 0.0365 µM) in assay [3] (setting [16]), above 256 µg/mL in assay [4] (ATCC29213) and above 256 µg/mL in assay [4] (setting [12]).
